Data from ChEMBL document CHEMBL5244229, “Thiazole-containing compounds as therapeutic targets for cancer therapy” (Eur J Med Chem, 2020).
In brackets after ≈: the same amount, converted by molar mass.

Assays:
[1] = tested on: HeLa; assay: Antiproliferative activity against human HeLa cells assessed as reduction in cell growth after 72 hrs; assay type: functional, cell-based
[2] = tested on: HEK293; assay: Antiproliferative activity against human HEK293 cells; assay type: functional
[3] = tested on: HCT-116; assay: Antiproliferative activity against human HCT-116 cells assessed as reduction in cell viability; assay type: functional, cell-based
[4] = tested on: A549; assay: Antiproliferative activity against human A549 cells; assay type: functional, cell-based
[5] = tested on: SNU-638; assay: Cytotoxicity against human SNU-638 cells; assay type: functional, cell-based
[6] = tested on: HepG2; assay: Cytotoxicity against human HepG2 cells; assay type: functional, cell-based
[7] = tested on: MKN-74; assay: Cytotoxicity against human MKN-74 cells; assay type: functional, cell-based
[8] = tested on: Hep 3B2; assay: Cytotoxicity against human Hep3B cells; assay type: functional, cell-based
[9] = tested on: AGS; assay: Cytotoxicity against human AGS cells; assay type: functional, cell-based
[10] = tested on: SK-HEP1; assay: Cytotoxicity against human SK-HEP1 cells; assay type: functional, cell-based
[11] = Cytotoxicity against human SNU-216 cells; assay type: functional, cell-based
[12] = tested on: MCF7; assay: Antitumor activity against human MCF7 cells; assay type: functional, cell-based
[13] = tested on: HepG2; assay: Cytotoxicity against human HepG2 cells assessed as reduction in cell viability incubated for 24 hrs by WST-1 assay; assay type: functional, cell-based; settings: HepG2, 24 h
[14] = tested on: Colon cell line; assay: Cytotoxicity against human Colon cell line; assay type: functional, cell-based; settings: Homo sapiens, Colon cell line
[15] = tested on: MDA-MB-231; assay: Cytotoxicity against human MDA-MB-231 cells assessed as reduction in cell viability by MTT assay; assay type: functional, cell-based
[16] = tested on: MCF7; assay: Cytotoxicity against human MCF7 cells assessed as reduction in cell viability by MTT assay; assay type: functional, cell-based
[17] = tested on: HeLa; assay: Cytotoxicity against human HeLa cells assessed as reduction in cell viability by MTT assay; assay type: functional, cell-based
[18] = tested on: HCT-116; assay: Cytotoxicity against human HCT-116 cells assessed as reduction in cell viability by MTT assay; assay type: functional, cell-based
[19] = tested on: K562; assay: Cytotoxicity against human K562 cells assessed as reduction in cell viability measured after 48 hrs by MTS assay; assay type: functional, cell-based; settings: K562, 48 h
[20] = tested on: HeLa; assay: Cytotoxicity against human HeLa cells assessed as reduction in cell viability measured after 48 hrs by MTS assay; assay type: functional, cell-based
[21] = tested on: Panel NCI-60 (60 carcinoma cell lines); assay: Antitumor activity against human Panel NCI-60 (60 carcinoma cell lines) cells; assay type: functional
[22] = tested on: MCF7; assay: Cytotoxicity against human MCF7 cells; assay type: functional, cell-based
[23] = tested on: A549; assay: Anticancer activity against human A549 cells at 5 microg/ml relative to control; assay type: functional; settings: dose 5 µg/ml
[24] = tested on: Panel NCI-60 (60 carcinoma cell lines); assay: Antiproliferative activity against human Panel NCI-60 (60 carcinoma cell lines) assessed as cell growth inhibition; assay type: functional
[25] = tested on: HL-60; assay: Cytotoxicity against human HL-60 cells; assay type: functional, cell-based
[26] = tested on: SF-295; assay: Cytotoxicity against human SF-295 cells; assay type: functional, cell-based
[27] = tested on: MDA-MB-435; assay: Cytotoxicity against human MDA-MB-435 cells; assay type: functional, cell-based
[28] = tested on: K562; assay: Anticancer activity against human K562 cells; assay type: functional, cell-based
[29] = tested on: HepG2; assay: Anticancer activity against human HepG2 cells; assay type: functional, cell-based
[30] = tested on: HCT-116; assay: Anticancer activity against human HCT-116 cells; assay type: functional, cell-based
[31] = tested on: SMMC-7721; assay: Cytotoxicity against human SMMC-7721 cells; assay type: functional, cell-based
[32] = tested on: HepG2; assay: Cytotoxicity against human HepG2 cells assessed as reduction in cell viability measured after 48 hrs by MTS assay; assay type: functional, cell-based; settings: HepG2, 48 h
[33] = tested on: PC-3; assay: Anticancer activity against human PC-3 cells; assay type: functional, cell-based
[34] = tested on: MCF7; assay: Cytotoxicity against human MCF7 cells assessed as reduction in cell viability incubated for 48 hrs by MTT assay; assay type: functional
[35] = tested on: NCI-H460; assay: Cytotoxicity against human NCI-H460 cells assessed as reduction in cell viability incubated for 48 hrs by MTT assay; assay type: functional
[36] = tested on: HepG2; assay: Antitumor activity against human HepG2 cells; assay type: functional, cell-based

## COc1ccc(/C=N/Nc2nc(-c3ccccc3)cs2)cc1
[1]
  IC50: 11.1 µg/mL (≈ 35.9 µM)

## CCCCCCCC(=O)SCC/C=C/[C@@H]1CC(=O)NCc2nc(cs2)C2=N[C@@](C)(CS2)C(=O)N[C@@H](C(C)C)C(=O)O1 [LARGAZOLE]
[2]
  GI50: > 100000 nM
[3]
  IC50: 390 nM
[4]
  GI50: 1460 nM

## C=C(NC(=O)C(=C)NC(=O)c1csc(C2=N[C@@H]3c4csc(n4)[C@H]4NC(=O)c5csc(n5)[C@H]([C@](C)(O)[C@@H](C)O)NC(=O)[C@H]5CSC(=N5)/C(=C/C)NC(=O)[C@H]([C@@H](C)O)NC(=O)c5csc(n5)[C@]3(CC2)NC(=O)[C@H](C)NC(=O)C(=C)NC(=O)[C@H](C)NC(=O)[C@H]([C@@H](C)CC)N[C@@H]2C=Cc3c([C@H](C)O)cc(nc3[C@H]2O)C(=O)O[C@@H]4C)n1)C(N)=O [THIOSTREPTON]
[5]
  IC50: 300 nM
[6]
  IC50: 710 nM
[7]
  IC50: 4200 nM
[8]
  IC50: 820 nM
[9]
  IC50: 400 nM
[10]
  IC50: 740 nM
[11]
  IC50: 410 nM

## O=C1N/C(=N/c2ccc(-c3nc4ccccc4o3)cc2)S/C1=C/c1ccc(Cl)cc1
[12]
  IC50: 19 nM

## COc1ccc(/N=N/c2sc(N/N=C(/C)c3sc(N)nc3C)nc2C)cc1
[13]
  IC50: 500 nM

## Cc1ccc(S(=O)(=O)C(Cl)(Cl)c2nc(C)sc2[N+](=O)[O-])cc1
[6]
  CC50: < 2500 nM
[14]
  CC50: 1000 nM

## COc1ccc(-c2csc(NC(=O)CN3CCc4ccccc4C3)n2)cc1
[14]
  LC50: 28 µg/mL (≈ 73.8 µM)

## CCCCCCCC(=O)SCC/C=C/[C@@H]1CC(=O)NCc2nc(cs2)C2=N[C@@](C)(CS2)C(=O)N[C@@H](c2ccccc2)C(=O)O1
[2]
  GI50: > 100000 nM
[3]
  IC50: 390 nM
[4]
  GI50: 1460 nM

## Nc1ccccc1C(=O)Nn1c(-c2ccc(Cl)cc2)cs/c1=N/c1ccc([N+](=O)[O-])cc1
[15]
  IC50: 5370 nM
[16]
  IC50: 5370 nM
[17]
  IC50: 5370 nM
[18]
  IC50: 5370 nM

## Clc1cccc(Nc2c3ccccc3nc3sc(NCCN4CCCCC4)nc23)c1
[19]
  IC50: 5690 nM
[20]
  IC50: 5690 nM

## Clc1nccc2c(-c3csc(-c4c[nH]c5ccc(Br)cc45)n3)c[nH]c12
[21]
  GI50: 930 nM

## Cc1cccc(N(c2cccc(Cl)c2)c2c3ccccc3nc3scnc23)c1
[19]
  IC50: 5690 nM
[20]
  IC50: 5690 nM

## O=c1[nH]cc(F)c(=O)[nH]1 [FLUOROURACIL]
[22]
  IC50: 5.5 µg/mL
[23]
  Activity: 57%

## Cc1cc(Cl)cc(C(=O)NC2CCCCC2)c1NC(=O)c1sc(-c2ccccc2Cl)nc1C(F)(F)F
[23]
  Activity: 48%

## Cn1cc(-c2nc(-c3c[nH]c4ccccc34)cs2)c2cccnc21
[24]
  GI50: 40 nM

## Cc1ccc2[nH]cc3c(=O)n(-c4nc5ccccc5s4)nc-3c2c1
[25]
  IC50: < 5 µg/mL
[26]
  IC50: < 5 µg/mL
[27]
  IC50: < 5 µg/mL

## C/C(=N/Nc1nc(C)c(/N=N/c2ccc(Cl)cc2)s1)c1sc(N)nc1C
[13]
  IC50: 520 nM

## O=S(=O)(O)c1ccc(/N=N/C(=N\c2nc(-c3ccccc3)cs2)c2cc3ccccc3nc2Cl)cc1
[22]
  IC50: 16000 nM
[28]
  IC50: 13000 nM

## COc1cccc2c1C(=O)c1c(O)c3c(c(O)c1C2=O)C[C@@](O)(C(=O)CO)C[C@@H]3O[C@H]1C[C@H](N)[C@H](O)[C@H](C)O1 [DOXORUBICIN]
[29]
  IC50: 11600 nM
[6]
  CC50: 200 nM
[30]
  IC50: 180 nM
[28]
  IC50: 2300 nM
[31]
  IC50: 230 nM
[32]
  IC50: 720 nM
[33]
  IC50: 912 nM

## C/C=C1\NC(=O)[C@H]([C@@H](C)O)NC(=O)c2csc(n2)-c2ccc(-c3nc(-c4nc(C(=O)N/C(=C/C)C(=O)NC[C@@H](C)O)cs4)cs3)nc2-c2csc(n2)[C@H]([C@@H](C)O)NC(=O)c2csc(n2)[C@H](C(C)(C)O)NC(=O)c2csc1n2
[5]
  IC50: 990 nM
[6]
  IC50: 1340 nM
[7]
  IC50: 11000 nM
[8]
  IC50: 2340 nM
[9]
  IC50: 1430 nM
[10]
  IC50: 2120 nM
[11]
  IC50: 7500 nM

## C/C=C1\NC(=O)[C@H]([C@@H](C)O)NC(=O)c2csc(n2)-c2ccc(-c3nc(-c4nc(C(=O)N/C(=C/C)C(=O)NC[C@H](C)O)cs4)cs3)nc2-c2csc(n2)[C@H]([C@@H](C)O)NC(=O)c2csc(n2)[C@H](C(C)C)NC(=O)c2csc1n2
[5]
  IC50: 410 nM
[6]
  IC50: 910 nM
[7]
  IC50: 7300 nM
[8]
  IC50: 940 nM
[9]
  IC50: 500 nM
[10]
  IC50: 830 nM
[11]
  IC50: 440 nM

## C/C(=N\NC(=O)/C(C#N)=C1\SC=C(O)N1c1ccccc1)C1CC[C@@]2(C)[C@]3(C)CC=C4C[C@@H](O)CC[C@]4(C)[C@@]3(C)CC[C@]12C (some centres undefined)
[34]
  GI50: 40 nM
[35]
  GI50: 90 nM

## C/C(=N/Nc1nc(C)c(/N=N/c2ccccc2)s1)c1sc(N)nc1C
[13]
  IC50: 840 nM

## O=C1N/C(=N/c2ccc(-c3nc4ccccc4s3)cc2)S/C1=C/c1ccc([N+](=O)[O-])cc1
[12]
  IC50: 48 nM
[36]
  IC50: 36 nM
